Patent publication US20060094749A1, “Substituted pyridoxines as anti-platelet agents” (Medicure International Inc., priority 2004, published 2006)

Legend:
Format in all cases: cell-based
[1] = tested on: platelets (platelet rich plasma); assay: Inhibition of platelet aggregation, collagen as agonist; conditions: human PRP; for inhibition at 500 µM: compound 500 μM; for inhibition at 250 µM: compound 250 μM; for inhibition at 100 µM: compound 100 μM; for inhibition at 50 µM: compound 50 μM
Protocol: (§1) Platelet rich plasma (PRP) was obtained by drawing whole blood from normal human donors (not on any medication) into sodium citrate tubes (3.2%), and centrifuging at 160 xg for about 10 minutes. Platelet poor plasma (PPP) was obtained by centrifuging the remainder of the sample after the platelets were removed at 800 xg for about 10 minutes. The PRP was adjusted to a count of 280×10^9/L using a mixture of PRP and PPP. The platelets (200 μL) were incubated with the test compounds (25 μL) adjusted to various concentrations (50, 100, 250, and 500 μM) for about 30 minutes at room temperature (approximate final platelet count in the incubation mixture of 250×10^9/L). The samples were incubated for about 3 minutes at about 37° C., and then transferred to the mixing wells of a Chrono-log 4 channel aggregometer (Chrono-log Corp., Havertown, Pa.). After baselines were established, the agonist (25 μL of 40 μM ADP (Sigma, St. Louis, Mo.) or 25 μL of 50 μg/mL and 10 μg/mL collagen (Helena Laboratories, Beaumont, Tex.) or 25 μL of 120 μM thrombin receptor activating peptide (TRAP) (Sigma)) was then added. Aggregation was monitored for 5 minutes at 37° C. with stirring (1000 rpm). The amplitude and slope of each tracing were calculated to determine the amount of aggregation. Control samples were performed using only solvent. The % reduction in aggregation was calculated for each sample compared to the proper solvent control.

[2] = tested on: platelets (platelet rich plasma); assay: Inhibition of platelet aggregation, ADP as agonist; conditions: ADP 4 μM, human PRP, read-out: % Reduction in Aggregation, ADP (4 μM); for inhibition at 500 µM: compound 500 μM; for inhibition at 250 µM: compound 250 μM; for inhibition at 100 µM: compound 100 μM
Protocol: as §1

[3] = tested on: platelets (platelet rich plasma); assay: Inhibition of platelet aggregation, thrombin receptor activating peptide (TRAP) as agonist; conditions: TRAP 12 μM, human PRP, read-out: % Reduction in Aggregation, TRAP (12 μM); for inhibition at 500 µM: compound 500 μM; for inhibition at 250 µM: compound 250 μM; for inhibition at 100 µM: compound 100 μM
Protocol: as §1

[4] = collagen 1 μg/mL, read-out: % Reduction in Aggregation, Collagen (1 μg/mL)
[5] = collagen 5 μg/mL, read-out: % Reduction in Aggregation, Collagen (5 μg/mL)

## Cc1ncc(CNC(=O)c2cccc(C(=N)N)c2)c(CO)c1O [Compound 2, 3-Carbamimidoyl-N-(5-hydroxy-4-hydroxymethyl-6-methyl-pyridin-3-ylmethyl)-benzamide]
[1]; [4]
  inhibition at 500 µM: 3%
[1]; [5]
  inhibition at 500 µM: 12%
[2]
  inhibition at 500 µM: 10%
[3]
  inhibition at 500 µM: 6%

## Cc1ncc(CNC(=O)c2ccc(C(=N)N)cc2)c(CO)c1O [Compound 5, 4-Carbamimidoyl-N-(5-hydroxyl-4-hydroxymethyl-6-methyl-pyridin-3-ylmethyl)-benzamide]
[1]; [4]
  inhibition at 500 µM: 91%
[1]; [5]
  inhibition at 500 µM: 27%
[2]
  inhibition at 500 µM: 71%
[3]
  inhibition at 500 µM: 84%

## Cc1ncc(CNCc2ccc(C(=N)N)cc2)c(CO)c1O [Compound 7, 4-{[(5-Hydroxyl-4-hydroxymethyl-6-methyl-pyridin-3-ylmethyl)-amino]-methyl}-benzamidine]
[1]; [4]
  inhibition at 500 µM: 2%
[1]; [5]
  inhibition at 500 µM: 8%
[2]
  inhibition at 500 µM: 26%
[3]
  inhibition at 500 µM: 34%

## Cc1ncc(CNCc2cccc(C(=N)N)c2)c(CO)c1O [Compound 9, 3-{[(5-Hydroxy-4-hydroxymethyl-6-methyl-pyridin-3-ylmethyl)-amino]-methyl]-benzamidine]
[1]; [4]
  inhibition at 500 µM: 0%
[1]; [5]
  inhibition at 500 µM: 10%
[2]
  inhibition at 500 µM: 2%
[3]
  inhibition at 500 µM: 0%

## Cc1ncc(CNc2cccc(C(=N)N)c2)c(CO)c1O [Compound 14, 3-[(5-Hydroxy-4-hydroxymethyl-6-methyl-pyridin-3-ylmethyl)-amino]-benzamidine]
[1]; [4]
  inhibition at 500 µM: 0%
[1]; [5]
  inhibition at 500 µM: 3%
[2]
  inhibition at 500 µM: 16%
[3]
  inhibition at 500 µM: 8%

## Cc1ncc(CNC(=O)c2ccc(-c3ccc([N+](=O)[O-])nc3)cc2)c(CO)c1O [Compound 18, N-(5-Hydroxy-4-hydroxymethyl-6-methyl-pyridin-3-ylmethyl)-4-(6-nitro-pyridin-3-yl)-benzamide]
[1]; [4]
  inhibition at 250 µM: 6%
[1]; [5]
  inhibition at 250 µM: 7%
[2]
  inhibition at 250 µM: 10%
[3]
  inhibition at 250 µM: 30%

## Cc1ncc(CNC(=O)c2ccc(-c3ccc(C(=N)N)cc3)cc2)c(CO)c1O [Compound 20, 4′-Carbamimidoyl-biphenyl-4-carboxylic (5-hydroxyl-4-hydroxymethyl-6-methyl-pyridin-3-ylmethyl)-amide]
[1]; [4]
  inhibition at 250 µM: 94%
[1]; [5]
  inhibition at 250 µM: 64%
[2]
  inhibition at 250 µM: 93%
[3]
  inhibition at 250 µM: 95%

## COc1c(C)ncc(CNC(=O)c2ccc(-c3ccc(C(=N)N)cc3)cc2)c1CO [Compound 23, 4′-Carbamimidoyl-biphenyl-4-carboxylic acid (4-hydroxymethyl-5-methoxy-6-methyl-pyridin-3-ylmethyl)-amide]
[1]; [4]
  inhibition at 250 µM: 19%
[1]; [5]
  inhibition at 250 µM: 17%
[2]
  inhibition at 250 µM: 39%
[3]
  inhibition at 250 µM: 27%

## Cc1ncc(CNC(=O)c2ccc(-c3ccc(C(=N)N)cc3)cc2)c(C(=O)O)c1O [Compound 26, 5-{[(4′-Carbamimidoyl-biphenyl-4-carbonyl)-amino]-methyl}-3-hydroxy-2-methyl-isonicotinic acid]
[1]; [4]
  inhibition at 100 µM: 52%
[1]; [5]
  inhibition at 100 µM: 18%
[2]
  inhibition at 100 µM: 62%
[3]
  inhibition at 100 µM: 17%

## COC(=O)c1c(CNC(=O)c2ccc(-c3ccc(C(=N)N)cc3)cc2)cnc(C)c1OC [Compound 28, 5-{[(4′-Carbamimidoyl-biphenyl-4-carbonyl)-amino]-methyl}-3-methoxy-2-methyl-isonicotinic acid methyl ester]
[1]; [4]
  inhibition at 250 µM: 17%
[1]; [5]
  inhibition at 250 µM: 24%
[2]
  inhibition at 250 µM: 46%
[3]
  inhibition at 250 µM: 10%

## Cc1ncc(CNc2ccc(-c3ccc(C(=N)N)cc3)cn2)c(CO)c1O [Compound 31, 4-{6-[(5-Hydroxy-4-hydroxymethyl-6-methyl-pyridin-3-ylmethyl)-amino]-pyridin-3-yl}-benzamidine]
[1]; [4]
  inhibition at 250 µM: 74%
[1]; [5]
  inhibition at 250 µM: 28%
[2]
  inhibition at 250 µM: 79%
[3]
  inhibition at 250 µM: 64%

## Cc1ncc(CNc2ccc(-c3ccc(C(=N)N)cc3)cc2OC(F)(F)F)c(CO)c1O [Compound 35]
[1]; [4]
  inhibition at 250 µM: 86%
[1]; [5]
  inhibition at 250 µM: 12%
[2]
  inhibition at 250 µM: 84%
[3]
  inhibition at 250 µM: 35%

## Cc1ncc(CNc2ccc(-c3ccc(C(=N)N)cc3)cc2C(F)(F)F)c(CO)c1O [Compound 37, 4′-[(5-Hydroxy-4-hydroxymethyl-6-methyl-pyridin-3-ylmethyl)-amino]-3′-trifluoromethyl-biphenyl-4-carboxamidine]
[1]; [4]
  inhibition at 250 µM: 19%
[1]; [5]
  inhibition at 250 µM: 6%
[2]
  inhibition at 250 µM: 43%
[3]
  inhibition at 250 µM: 17%

## Cc1ncc(CO)c(CNc2ccc(C(=N)N)cc2)c1O [Compound 39, 4-[(3-Hydroxy-5-hydroxymethyl-2-methyl-pyridin-4-ylmethyl)-amino]-benzamidine]
[1]; [4]
  inhibition at 100 µM: 1%
[1]; [5]
  inhibition at 100 µM: 8%
[2]
  inhibition at 100 µM: 3%
[3]
  inhibition at 100 µM: 5%

## Cc1ncc(CNc2ccc(-c3ccc(C(=N)N)cc3)cc2)c(C)c1O [Compound 43, 4′-[(5-Hydroxy-4,6-dimethyl-pyridin-3-ylmethyl)-amino]-biphenyl-4-carboxamidine]
[1]; [4]
  inhibition at 250 µM: 100%
[1]; [5]
  inhibition at 250 µM: 0%
[2]
  inhibition at 250 µM: 87%
[3]
  inhibition at 250 µM: 69%

## Cc1ncc(CN(Cc2ccc(C(=N)N)cc2)c2ccc(C(=N)N)cc2)c(CO)c1O [Compound 52, 4-(N-(4-Carbamimidoyl-benzyl)-N-((5-hydroxy-4-(hydroxymethyl)-6-methylpyridin-3-yl)methyl)amino)benzamidine]
[1]; [4]
  inhibition at 50 µM: 93%
[1]; [5]
  inhibition at 50 µM: 7%
[2]; compound 50 μM
  inhibition at 50 µM: 95%
[3]; compound 50 μM
  inhibition at 50 µM: 95%

## Cc1ncc(CCNCc2ccc(C(=N)N)cc2)c(CO)c1O [Compound 55, 4-{[2-(5-Hydroxy-4-hydroxymethyl-6-methyl-pyridin-3-yl)-ethylamino]-methyl}-benzamidine]
[1]; [4]
  inhibition at 500 µM: 24%
[1]; [5]
  inhibition at 500 µM: 20%
[2]
  inhibition at 500 µM: 38%
[3]
  inhibition at 500 µM: 75%

## Cc1ncc(CCNCc2cccc(C(=N)N)c2)c(CO)c1O [Compound 57, 3-{[2-(5-Hydroxy-4-hydroxymethyl-6-methyl-pyridin-3-yl)ethylamino]methyl}-benzamidine]
[1]; [4]
  inhibition at 500 µM: 6%
[1]; [5]
  inhibition at 500 µM: 0%
[2]
  inhibition at 500 µM: 0%
[3]
  inhibition at 500 µM: 14%

## Cc1ncc(CCNC(=O)c2ccc(C(=N)N)cc2)c(CO)c1O [Compound 59, 4-Carbamimidoyl-N-[2-(5-hydroxy-4-hydroxymethyl-6-methyl-pyridin-3-yl)-ethyl]-benzamide]
[1]; [4]
  inhibition at 500 µM: 28%
[1]; [5]
  inhibition at 500 µM: 11%
[2]
  inhibition at 500 µM: 55%
[3]
  inhibition at 500 µM: 67%

## Cc1ncc(CCNC(=O)c2cccc(C(=N)N)c2)c(CO)c1O [Compound 61, 3-Carbamimidoyl-N-[2-(5-hydroxy-4-hydroxymethyl-6-methyl-pyridin-3-yl)-ethyl]-benzamide]
[1]; [4]
  inhibition at 500 µM: 0%
[1]; [5]
  inhibition at 500 µM: 10%
[2]
  inhibition at 500 µM: 2%
[3]
  inhibition at 500 µM: 0%
